Assay results taken from patent US20250236608A1, “EGFR INHIBITORS” (Blueprint Medicines Corporation, priority 2022, published 2025).

Experiments:
EGFR L858R = EGFR L858R (Homo sapiens (Human), UniProt P00533, L858R); assay: Biochemical EGFR inhibition assay, EGFR L858R; settings: Caliper mobility shift; 1.0 mM ATP or ATP Km; read-out: Enz EGFR_L858R IC50
Description: (§1) Reactions proceeded until between 10% to 20% total peptides were phosphorylated at room temperature (25° C.) and were terminated with 35 mM 2,2′,2″,2″-(ethane-1,2-diyldinitrilo)tetraacetic acid (EDTA). Product was detected using the Caliper mobility shift detection method where the phosphorylated peptide (product) and substrate were electrophoretically separated and measured. Percent activity was plotted against log concentration of compound and points to generate an apparent IC50.

EGFR (d746-750) = EGFR (d746-750) (Homo sapiens (Human), UniProt P00533, DEL746-750); assay: Biochemical EGFR inhibition assay, EGFR (d746-750); settings: Caliper mobility shift; 1.0 mM ATP or ATP Km; read-out: Enz EGFR_Exon19-del746-750 IC50
Description: as §1

[1] = target: pEGFR (Tyr1068) in PC-9 cells (Ex19Del) (Homo sapiens (Human), UniProt P00533, DEL746-750); assay: PC-9 pEGFR AlphaLISA assay; type: cell-based; settings: 4 hours incubation, p-EGFR (Tyr1068) AlphaLISA, read-out: Ext pEGFR_PC-9 Ex19Del IC50
Description: PC-9/A431 pEGFR AlphaLISA Assays
Inhibitory effects of compounds were evaluated in cellular assays that measure level of intracellular phosphorylation of EGFR in PC-9 (ECACC, #90071810, Milipore/Sigma) and A431 cell lines (ATCC, CRL-1555) using AlphaLISA sureFire ultra p-EGFR (Tyr1068) assay kit (PerkinElmer, ALSU-PEGFR-A50K). PC-9 cells were seeded at 3.125×10^5 cells/ml in 40 μL phenol-free DMEM supplemented with 10% FBS per well of a 384 well plate (Corning, 3764), while A431 were seeded at 3.125×10^5 cells/ml in 40 μL in phenol-free DMEM with 0.5% FBS. Cells were allowed to adhere overnight at 37° C./5% CO2. On the next day, compounds were transferred at 4-fold, 10-point serial dilution from compound source plate to cell plates using liquid handler Echo550 and were incubated at 37° C./5% CO2 for 4 hours. A431 cells were stimulated prior harvesting for 10 min with EGF at final concentration of 30 ng/ml in the incubator. Medium was removed from the plates and cells were lysed with 10 μL of 1× AlphaLISA lysis buffer (supplemented with 1× protease/phosphatase inhibitor cocktail) followed by shaking at 600 rpm for 30 minutes at room temperature. Lysates were transferred to Optiplate (Apricot designs) and 5 μl of 1× acceptor bead mix (prepared just before use) was added to each well followed by incubation at room temperature for 1.5-2 h in dark. Then 5 μL of freshly-made donor bead mix is added to each well under subdued lighting or green filters, was mixed well on the shaker and the plate was sealed and left for an overnight incubation at room temperature in dark. On the next day, the plate was read the Envision using standard AlphaLisa settings. Percent of pEGFR inhibition was plotted against log concentration of compounds to generate IC50 values.

EGFR L858R, sequence (P00533 25-1210 L858R): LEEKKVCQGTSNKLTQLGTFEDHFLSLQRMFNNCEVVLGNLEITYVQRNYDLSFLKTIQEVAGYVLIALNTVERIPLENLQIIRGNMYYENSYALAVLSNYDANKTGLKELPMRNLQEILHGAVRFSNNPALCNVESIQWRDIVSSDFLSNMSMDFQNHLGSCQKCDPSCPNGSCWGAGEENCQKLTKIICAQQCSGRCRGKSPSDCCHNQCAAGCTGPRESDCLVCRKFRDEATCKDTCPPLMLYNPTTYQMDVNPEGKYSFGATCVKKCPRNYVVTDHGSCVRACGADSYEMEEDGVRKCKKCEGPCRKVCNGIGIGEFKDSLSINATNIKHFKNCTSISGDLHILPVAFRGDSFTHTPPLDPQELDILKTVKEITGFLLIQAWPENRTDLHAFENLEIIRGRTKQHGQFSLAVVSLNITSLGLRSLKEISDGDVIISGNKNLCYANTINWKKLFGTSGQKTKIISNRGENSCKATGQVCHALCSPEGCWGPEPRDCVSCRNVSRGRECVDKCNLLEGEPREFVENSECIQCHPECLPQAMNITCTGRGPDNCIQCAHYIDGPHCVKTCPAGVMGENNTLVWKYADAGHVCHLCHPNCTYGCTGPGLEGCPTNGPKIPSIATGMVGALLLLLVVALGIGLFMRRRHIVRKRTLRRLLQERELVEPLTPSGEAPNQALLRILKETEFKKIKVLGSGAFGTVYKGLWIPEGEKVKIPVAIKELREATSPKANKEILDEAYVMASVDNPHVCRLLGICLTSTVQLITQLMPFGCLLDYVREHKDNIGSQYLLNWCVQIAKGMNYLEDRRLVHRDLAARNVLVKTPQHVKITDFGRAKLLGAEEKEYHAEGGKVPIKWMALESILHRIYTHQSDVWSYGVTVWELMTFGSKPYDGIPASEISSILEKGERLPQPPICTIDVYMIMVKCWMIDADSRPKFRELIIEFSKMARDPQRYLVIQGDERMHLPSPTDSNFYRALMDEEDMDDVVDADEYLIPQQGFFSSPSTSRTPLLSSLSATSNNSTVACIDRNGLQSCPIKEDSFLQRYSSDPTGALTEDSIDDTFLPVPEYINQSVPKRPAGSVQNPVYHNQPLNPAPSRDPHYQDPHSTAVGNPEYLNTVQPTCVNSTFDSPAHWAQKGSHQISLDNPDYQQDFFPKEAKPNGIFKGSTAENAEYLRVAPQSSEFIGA
pEGFR (Tyr1068) in PC-9 cells (Ex19Del), sequence (P00533 other isoform, or with tags, fused parts or gaps del 746-750): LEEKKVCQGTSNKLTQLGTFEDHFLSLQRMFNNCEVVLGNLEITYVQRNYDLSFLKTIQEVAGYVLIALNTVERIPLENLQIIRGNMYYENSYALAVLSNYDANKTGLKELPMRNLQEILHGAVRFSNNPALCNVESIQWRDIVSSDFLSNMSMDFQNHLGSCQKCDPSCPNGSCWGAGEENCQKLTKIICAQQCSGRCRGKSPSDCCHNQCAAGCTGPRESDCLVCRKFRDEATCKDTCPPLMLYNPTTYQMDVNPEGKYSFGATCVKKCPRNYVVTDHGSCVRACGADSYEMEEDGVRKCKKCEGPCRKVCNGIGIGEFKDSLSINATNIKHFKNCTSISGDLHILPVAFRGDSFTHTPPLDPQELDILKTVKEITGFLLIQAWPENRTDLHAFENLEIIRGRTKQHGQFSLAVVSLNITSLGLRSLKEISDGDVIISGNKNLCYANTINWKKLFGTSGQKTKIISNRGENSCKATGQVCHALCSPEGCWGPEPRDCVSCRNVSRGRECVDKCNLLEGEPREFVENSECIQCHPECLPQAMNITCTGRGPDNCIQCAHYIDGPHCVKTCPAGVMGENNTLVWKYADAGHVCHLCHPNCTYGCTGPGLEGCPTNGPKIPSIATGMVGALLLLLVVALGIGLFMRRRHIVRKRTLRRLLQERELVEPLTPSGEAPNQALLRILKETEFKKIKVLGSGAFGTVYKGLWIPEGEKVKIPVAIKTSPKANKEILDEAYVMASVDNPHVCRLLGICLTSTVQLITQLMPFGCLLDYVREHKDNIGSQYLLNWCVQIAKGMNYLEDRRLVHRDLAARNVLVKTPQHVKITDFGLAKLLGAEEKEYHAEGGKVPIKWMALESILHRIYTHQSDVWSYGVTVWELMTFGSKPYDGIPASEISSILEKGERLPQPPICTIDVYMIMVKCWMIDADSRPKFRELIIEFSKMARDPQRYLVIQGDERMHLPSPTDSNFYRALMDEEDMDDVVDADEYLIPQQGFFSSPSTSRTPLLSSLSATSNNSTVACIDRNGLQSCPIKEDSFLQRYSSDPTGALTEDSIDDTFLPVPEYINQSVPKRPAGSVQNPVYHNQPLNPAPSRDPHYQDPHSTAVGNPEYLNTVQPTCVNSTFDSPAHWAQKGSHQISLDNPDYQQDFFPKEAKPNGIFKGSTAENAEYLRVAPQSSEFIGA
EGFR (d746-750), sequence (P00533 other isoform, or with tags, fused parts or gaps del 1-694/del 746-750 limits assumed): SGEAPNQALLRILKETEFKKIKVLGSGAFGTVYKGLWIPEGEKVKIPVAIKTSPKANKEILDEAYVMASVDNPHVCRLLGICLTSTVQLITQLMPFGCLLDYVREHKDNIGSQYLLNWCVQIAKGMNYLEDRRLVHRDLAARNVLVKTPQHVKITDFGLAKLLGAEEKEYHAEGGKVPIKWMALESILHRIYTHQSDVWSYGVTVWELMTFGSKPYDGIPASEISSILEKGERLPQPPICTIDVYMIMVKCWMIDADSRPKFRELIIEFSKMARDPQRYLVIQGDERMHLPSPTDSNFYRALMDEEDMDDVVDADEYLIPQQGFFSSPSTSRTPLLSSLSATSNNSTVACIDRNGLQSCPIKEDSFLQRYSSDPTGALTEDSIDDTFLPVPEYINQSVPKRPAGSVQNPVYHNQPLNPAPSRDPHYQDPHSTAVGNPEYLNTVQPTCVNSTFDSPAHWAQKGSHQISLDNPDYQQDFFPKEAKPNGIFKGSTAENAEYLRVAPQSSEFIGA

| Compound | IC50 (EGFR L858R) [nM] | IC50 (EGFR (d746-750)) [nM] | IC50 [1] [nM] |
| --- | --- | --- | --- |
| COc1cc2ncnc(-c3cn(C)nc3-c3ccc(F)cc3)c2nc1NC(=O)[C@@]12COC[C@@H]1C2 (single isomer, unassigned) [Example 382, (1R,5R)—N-(4-(3-(4-fluorophenyl)-1-methyl-1H-pyrazol-4-yl)-7-methoxypyrido[3,2-d]pyrimidin-6-yl)-3-oxabicyclo[3.1.0]hexane-1-carboxamide or (1S,5S)—N-(4-(3-(4-fluorophenyl)-1-methyl-1H-pyrazol-4-yl)-7-methoxypyrido[3,2-d]pyrimidin-6-yl)-3-oxabicyclo[3.1.0]hexane-1-carboxamide] | 2.4 | 0.6 | 1.6 |
| COc1cc2ncnc(-c3cn(C)nc3-c3ccccc3)c2cc1N1CCN(C)C1=O [Example 176, 1-(7-methoxy-4-(1-methyl-3-phenyl-1H-pyrazol-4-yl)quinazolin-6-yl)-3-methylimidazolidin-2-one] | 5.4 | 3 | 11 |
| COc1cc2ncnc(-c3cn(C)nc3-c3ccccc3)c2nc1OC(C)c1nnnn1C (stereo not drawn) [Example 29, 7-methoxy-6-(1-(1-methyl-1H-tetrazol-5-yl)ethoxy)-4-(1-methyl-3-phenyl-1H-pyrazol-4-yl)pyrido[3,2-d]pyrimidine] | 4.8 | 1.9 | 11.3 |
| COc1cc2ncnc(-c3cn(C)nc3-c3ccccc3)c2cc1NC(=O)c1ccc(C)nc1 [Example 323, N-(7-methoxy-4-(1-methyl-3-phenyl-1H-pyrazol-4-yl)quinazolin-6-yl)-6-methylnicotinamide] | 3.3 | 1.6 | 3.9 |
| COc1cc2ncnc(-c3cn(C)nc3-c3ccc(F)cc3)c2nc1NC(=O)[C@]12COC[C@H]1C2 (single isomer, unassigned) [Example 381, (1S,5S)—N-(4-(3-(4-fluorophenyl)-1-methyl-1H-pyrazol-4-yl)-7-methoxypyrido[3,2-d]pyrimidin-6-yl)-3-oxabicyclo[3.1.0]hexane-1-carboxamide or (1R,5R)—N-(4-(3-(4-fluorophenyl)-1-methyl-1H-pyrazol-4-yl)-7-methoxypyrido[3,2-d]pyrimidin-6-yl)-3-oxabicyclo[3.1.0]hexane-1-carboxamide] | 1.9 | 0.7 | 1.4 |
| COc1cc2ncnc(-c3cn(C)nc3-c3ccccc3F)c2nc1NC(=O)[C@@]12C[C@@H]1CN(C)C2 [Example 373, (1S,5S)—N-(4-(3-(2-fluorophenyl)-1-methyl-1H-pyrazol-4-yl)-7-methoxypyrido[3,2-d]pyrimidin-6-yl)-3-methyl-3-azabicyclo[3.1.0]hexane-1-carboxamide] | 2.2 | 0.8 | 2.3 |
| COc1cc2ncnc(-c3cn(C)nc3-c3ccccc3)c2cc1NC(=O)c1cccnc1 [Example 325, N-(7-methoxy-4-(1-methyl-3-phenyl-1H-pyrazol-4-yl)quinazolin-6-yl)nicotinamide] | 1.7 | 1 | 2 |
| COc1cc2ncnc(-c3cn(C)nc3-c3ccccc3)c2cc1NC(=O)C1CC(F)(F)C1 [Example 346, 3,3-difluoro-N-(7-methoxy-4-(1-methyl-3-phenyl-1H-pyrazol-4-yl)quinazolin-6-yl)cyclobutane-1-carboxamide] | 2.1 | 1.3 | 0.9 |
| CN(C)C12CC(C(=O)Nc3nc4c(-c5cn(C)nc5-c5ccc(F)cc5)ncnc4cc3OC(F)F)(C1)C2 [Example 466, N-[7-(difluoromethoxy)-4-[3-(4-fluorophenyl)-1-methyl-1H-pyrazol-4-yl]pyrido[3,2-d]pyrimidin-6-yl]-3-(dimethylamino) bicyclo[1.1.1]pentane-1-carboxamide] | 39 | 7.3 | 31.2 |
| COc1cc2ncnc(-c3cn(C)nc3-c3ccccc3)c2cc1NC(=O)[C@]1(C)CCCO1 (single isomer, unassigned) [Example 258, (S)—N-(7-methoxy-4-(1-methyl-3-phenyl-1H-pyrazol-4-yl)quinazolin-6-yl)-2-methyltetrahydrofuran-2-carboxamide or (R)—N-(7-methoxy-4-(1-methyl-3-phenyl-1H-pyrazol-4-yl)quinazolin-6-yl)-2-methyltetrahydrofuran-2-carboxamide] | 3.8 | 0.9 | 4.2 |
| COc1cc2ncnc(-c3cn(C)nc3-c3ccccc3)c2cc1CO [Example 119, (7-methoxy-4-(1-methyl-3-phenyl-1H-pyrazol-4-yl)quinazolin-6-yl)methanol] | 3.9 | 2.1 | 13.6 |
| CCOc1cc2ncnc(-c3cn(C)nc3-c3ccccc3)c2cc1OC1CCOCC1 [Example 24, 7-ethoxy-4-(1-methyl-3-phenyl-1H-pyrazol-4-yl)-6-((tetrahydro-2H-pyran-4-yl)oxy)quinazoline] | 1.3 | 0.8 | 2.6 |
| CCn1cc(-c2ncnc3cc(OC)c(NC(=O)c4cnn(C(F)(F)F)c4)nc23)c(-c2ccccc2)n1 [Example 314, N-(4-(1-ethyl-3-phenyl-1H-pyrazol-4-yl)-7-methoxypyrido[3,2-d]pyrimidin-6-yl)-1-(trifluoromethyl)-1H-pyrazole-4-carboxamide] | 1.4 | 0.8 | 1.1 |
| [2H]C([2H])([2H])N1CCN(C(=O)Nc2cc3c(-c4cn(C)nc4-c4ccccc4)ncnc3cc2OC)[C@@H](C)C1 [Example 181, (S)—N-(7-methoxy-4-(1-methyl-3-phenyl-1H-pyrazol-4-yl)quinazolin-6-yl)-2-methyl-4-(methyl-d3) piperazine-1-carboxamide] | 4.3 | 2.7 | 4.5 |
| COCc1cc2c(-c3cn(C)nc3-c3ccccc3)ncnc2cc1OC [Example 120, 7-methoxy-6-(methoxymethyl)-4-(1-methyl-3-phenyl-1H-pyrazol-4-yl)quinazoline] | 2.9 | 0.8 | 7.3 |
| COc1cc2ncnc(-c3cn(CC(F)F)nc3-c3ccccc3)c2cc1N1CCOCC1 [Example 168, 4-(4-(1-(2,2-difluoroethyl)-3-phenyl-1H-pyrazol-4-yl)-7-methoxyquinazolin-6-yl)morpholine] | 1.5 | 1 | 0.8 |
| CCOc1cc2ncnc(-c3cn(CC)nc3-c3ccccc3)c2cc1N1CCOCC1 [Example 170, 4-(7-ethoxy-4-(1-ethyl-3-phenyl-1H-pyrazol-4-yl)quinazolin-6-yl)morpholine] | 2 | 0.9 | 1.2 |
| COc1cc2ncnc(-c3cn(C)nc3-c3ccccc3)c2cc1OC(=O)N1[C@@H](C)COC[C@@H]1C [Example 64, 7-methoxy-4-(1-methyl-3-phenyl-1H-pyrazol-4-yl)quinazolin-6-yl (3S,5S)-3,5-dimethylmorpholine-4-carboxylate] | 6.1 | 2.1 | 13.7 |
| COc1cc2ncnc(-c3cn(C)nc3-c3ccc(F)cc3)c2cc1NC(=O)C1(CN(C)C)CC1 [Example 211, 1-((dimethylamino)methyl)-N-(4-(3-(4-fluorophenyl)-1-methyl-1H-pyrazol-4-yl)-7-methoxyquinazolin-6-yl)cyclopropane-1-carboxamide] | 2.8 | 1.5 | 3.3 |
| CCn1cc(-c2ncnc3cc(OC)c(OC(=O)N4CCN(C)C[C@@H]4C)cc23)c(-c2ccccc2)n1 [Example 95, 4-(1-ethyl-3-phenyl-1H-pyrazol-4-yl)-7-methoxyquinazolin-6-yl(S)-2,4-dimethylpiperazine-1-carboxylate] | 3 | 1.7 | 2.4 |
| CCOc1cc2ncnc(-c3cn(C)nc3-c3ccccc3)c2nc1N1CC2(COC2)C1 [Example 175, 6-(7-ethoxy-4-(1-methyl-3-phenyl-1H-pyrazol-4-yl)pyrido[3,2-d]pyrimidin-6-yl)-2-oxa-6-azaspiro[3.3]heptane] | 1.6 | 1 | 1.2 |
